How the values were obtained:
NO production = experiment: Measurement of NO concentrations (Griess reaction) in porcine chondrocytes; type: cell-based; conditions: Sus scrofa, Chondrocyte, nitrite in supernatants, read-out: anti-inflammatory IC50 (μM) on NO production
Description: Porcine cartilage was obtained from the hind leg joints of pigs. The synthesis of chondrocytes from cartilage was performed according to our previous report. After enzymatic digestion of articular cartilage with 2 mg/mL protease in serum-free Dulbecco's modified Eagle's medium (DMEM)/antibiotics, the specimens were then digested overnight with 2 mg/mL collagenase I and 0.9 mg/ml, hyaluronidase in DMEM containing 10% fetal bovine serum (FBS). The cells were collected, passed through a cell strainer (Becton Dickinson, Mountain View, Calif., USA), and cultured in DMEM containing 10% […] and antibiotics for 3-4 days before use.
The measurement of NO release was reflected by determination of its stable end product, nitrite, in supernatants. The Griess reaction was performed with the concentrations of nitrite measured by a spectrophotometer. In brief, an aliquot (100 μL) of culture supernatant was incubated with 50 μL of 0.1% sulfanilamide in 5% phosphoric acid and 50 μL of 0.1% N-1-naphthyl-ethylenediamine dihydrochloride. After 10 min of incubation at room temperature, the absorbance was measured at 550 nm wavelength with a plate reader (recall, Grodig, […]).

[1] = MTT assay, RAW264.7 cell viability; type: cell-based; conditions: mouse; RAW 264.7 cells; cytotoxic concentration that produces 50% cell death
Description: (§1) The compounds 1 to 24 of the present invention is tested by three pharmacological activity tests as follows: (1) MTT assay to test the RAW264.7 cell (murine monocyte/macrophage cell line) viability; (2) Tartrate-resistant acid phosphatase (TRAP) staining and activity analysis to investigate the cell differentiation activity; (3) The activity test of bone resorption (Pit formation assay).
(§2) The synthesized difunisal derivatives, compounds 1 to 24, were pharmacologically tested to be identified the relationship between their structure and activity. Cell viability was measured by MTT assay in RAW 264.7 cells upon treatment with compounds at 5 μM. CC50 is the cytotoxic concentration that produces 50% (CC50) cell death. […] The multinucleated osteoclasts could be formed by RANKL-induced macrophage cell line […]. RAW 264.7 cells were cultured with the indicated in the presence of drug and RANKL (100 ng/mL). Numbers of TRAP-positive (TRAP^+) multinucleated cells (MNCs) were counted in the presence of RANKL to identify the relationship between osteoclast and bone formation. […] The compound 16 performed the best inhibitory effect in the TRAP staining. The compound 16 was a derivate from compound 4 and its structure was related to compound 4. Therefore, the compound 4 and 16 were performed by TRAP assay to evaluate the effect on osteoclast differentiation by different concentration of compounds. […] According to above result, it can be speculated that: (1) Due to different substitutes on benzene ring of difunisal, the inhibitory ability of RANKL-induced osteoclast differentiation would be different. (2) Due to the electron-withdrawing group substitutes of R1 and R4 on benzene ring, or electron-withdrawing group substitutes derivatives of R2 on benzene ring, such as compound 4. (R1═F and R4═F), compound 6 (R2═CF3), compound 9 (R2═CN) and compound 16 (R1═F and R4═F), (3) compound 4 (R1═F and R4═F) and compound 6 (R2═CF3), a cyclic derivate compound 16 (R1═F and R4═F) and compound 18 (R2═CF3), the inhibitory activity would be stronger.

RAW 264.7 cells = experiment: MTT assay, RAW264.7 cell viability; type: cell-based; conditions: MTT assay, compounds at 5 μM
Description: as §1, §2

[2] = test system: RANKL-induced osteoclast differentiation in RAW 264.7 cells; experiment: TRAP staining, RANKL-induced osteoclast differentiation (TRAP+ multinucleated cells); type: cell-based, murine; conditions: Mus musculus; for inhibition at 5 µM: RAW264.7, RAW 264.7 cells, RANKL (100 ng/mL), compounds at 5 μM, TRAP-positive multinucleated cells, read-out: Inhibition of MNCs (%); for IC50: RAW264.7, different concentrations of compound, FIG. 1A, read-out: TRAP inhibitory activity IC50
Description: as §1, §2

[3] = test system: RANKL-induced resorption of osteoclast (RAW264.7 cells); experiment: Pit formation assay (bone resorption activity); type: cell-based, murine; conditions: 5 μM, dentine slices, 4 days, FIG. 1B
Description: as §1
By using pit formation assay, compounds 4 and 16 have effect on inhibition of resorption of osteoclast. RAW264.7 cells were cultured without compounds (compound 4 or compound 16, 5 μM) or treated with compounds (compound 4 or compound 16, 5 μM) in 24 well dentine slices plates in the presence of RANKL after 4 days, to identify the ability of resorption of osteoclast by observing the resorption pits formation. […] It was obvious that compound 4 or 16 could inhibit the RANKL-induced resorption of osteoclast (FIG. 3A to D).

Compound	IC50 (NO production)	CC50 [1]	Cell viability (%) (RAW 264.7 cells)	inhibition at 5 µM [2]	IC50 [2]	resorbed area compared to the cell cultured without drug in the presence of RANKL [3]
O=C(Nc1cc(F)ccc1F)c1cc(-c2ccc(F)cc2F)ccc1O [compound 4, N-(2,5-difluorophenyl)-2′,4′-difluoro-4-hydroxy-[1,1′-biphenyl]-3-carboxamide]	0.71 µM	14.6 µM	102.46 ± 1.10%	67.3 ± 4.38%	3.89 µM	23.11±2.25%
O=c1oc2ccc(-c3ccc(F)cc3F)cc2c(=O)n1-c1cc(F)ccc1F [compound 16, 6-(2,4-difluorophenyl)-3-(2,5-difluorophenyl)-2H-benzo[e][1,3]oxazine-2,4(3H)-dione]	1.15 µM	10.8 µM	86.60 ± 5.69%	86.8 ± 1.74%	< 2.5 µM	20.11±1.51%

Reference: US9162993B2, “Preparation and pharmaceuticals of biphenyl benzamide-derived derivatives” (NATIONAL DEFENSE MEDICAL CENTER, priority 2012, dated 2015)
